Experimental data from US20040248195A1, “Uses of a thyx polypeptide or a nucleic acid encoding such a polypeptide, in particular for screening anti-bacterial or anti-viral compounds” (priority 2001, published 2004).

Experiments:
[1] = target: T1, ThyX protein of H. pylori (Helicobacter pylori, UniProt O26061); experiment: Tritium release from [5-3H]dUMP by purified ThyX (thymidylate synthase activity); type: biochemical; conditions: for inhibition of ThyX activity: result in words
T1 construct: made in house
Excerpt: In dTMP formation, the loss of tritium from […] in the solvent is a compulsory intermediary, allowing to quantify the thymidylate-synthetase activity after removal of radioactive nucleotides from the reaction mixtures (ROBERTS, 1966). In order to tackle the biochemical mechanism, wherein ThyX could circumvent the requirement for the ThyA in the de novo synthesis of thymydilate, the purified ThyX protein was used to the same extent.
N^5,N^10—CH2H4folate was non-enzymatically formed, through incubation of 2 mM of tetrahydrofolic acid (Sigma®) with 100 mM of β-mercaptoethanol and 20 mM of formol for 30 minutes in the dark and at room temperature. […] The control reactions were achieved under analogous conditions, without tetrahydrofolic acid. […], a specific activity at 16,2 Ci/mmol (Amersham) and stopped after 60 minutes at 37° C. by two extractions with 250 μl of active carbon [10% (weight/volume) of Norit A] in 2% trichloroacetic acid so as to remove the nucleotides from the reaction mixtures. The remanent radioactivity in the supernatant was determined according to MYLLYKALLIO (2000).

[2] = test system: transformants containing thyX in the E.coli X2913(ΔthyA) strain; conditions: only high trimethoprim concentrations inhibit

T1 sequence (O26061 whole entry): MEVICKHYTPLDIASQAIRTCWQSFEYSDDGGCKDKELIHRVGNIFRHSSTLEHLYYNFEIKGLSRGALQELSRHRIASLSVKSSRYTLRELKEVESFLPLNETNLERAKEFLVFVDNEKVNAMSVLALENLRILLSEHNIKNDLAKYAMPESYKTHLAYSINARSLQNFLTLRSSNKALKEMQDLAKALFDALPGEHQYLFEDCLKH

How did the “inhibition of ThyX activity” value [1] turn out when `Cc1cn([C@H]2C[C@H](O)[C@@H](COP(=O)(O)O)O2)c(=O)[nH]c1=O` [dTMP, thymidine 5′-monophosphate] was run?
Its value is “inhibited”.

How did the “inhibition of ThyX activity” value [1] turn out when `O=c1[nH]c(=O)n([C@H]2C[C@H](O)[C@@H](COP(=O)(O)O)O2)cc1F` [fluoro-dUMP] was run?
The value was “inhibitor”.

Which “concentration sufficient for saturating the release activity of tritium” value ([1]; complete reaction conditions, 60 minutes incubation) does the source give for `Nc1nc2c(c(=O)[nH]1)N1CN(c3ccc(C(=O)N[C@@H](CCC(=O)O)C(=O)O)cc3)CC1CN2` (stereo partly shown) [CH2H4folate] here?
The value was 100 µM.

Which results are given for `O=c1ccn([C@@H]2O[C@H](COP(=O)(O)O)[C@@H](O)[C@H]2O)c(=O)[nH]1` [UMP]?
nmol of released ^3H/mg of protein (60 minute incubation) ([1]; complete test plus 500 μM of the added nucleotide, 9 μM 3H-dUMP, 60 minute incubation): 64.4 nmol of released ^3H/mg of protein; released ^3H as % of the complete test ([1]; complete test plus 500 μM of the added nucleotide, complete = 100%, 60 minute incubation): 102.2%; use as substrate by the ThyX activity (competition experiments) ([1]; simple competition experiments): does not use UMP as a substrate

For `COc1cc(Cc2cnc(N)nc2N)cc(OC)c1OC` [trimethoprim], which “inhibition of growth of thyX transformants” value [2] is on record?
The value was “inhibited”.
